Columns and labels:
[1] = Pharmacokinetics in mice (exposure and oral availability); format: in vivo; settings: male, mouse, ICR mice; for bioavailability: PO (10 mpk) vs IV (2 mpk), read-out: Oral availability (F %)
Excerpt: (§1) The purpose of this study is to study the pharmacokinetic behaviors of some compounds of the present invention, and administration routes were: single per oral administration (PO) or intravenous injection (IV) to ICR mice or rats.
(§2) The compounds used in this test were compounds of specific examples of the present invention and the comparative compounds listed.
ICR mice male N=9 original source: Shanghai Sippr-BK Laboratory Animal Co. Ltd.
(§3) The compounds were each dissolved in a corresponding vehicle, mixed well by shaking and subjected to ultrasonic treatment to obtain colorless clear solutions. 9 mice and 3 rats were orally administered with the solution after fasting overnight. The mice were dosed at 10 mg/kg (or 2 mg/kg by IV) and the rats were dosed at 5 mg/kg (or 1 mg/kg by IV).
(§4) With about 90 μL/time point, blood was drawn from the submaxillary vein, and heparin sodium was added for anticoagulation. The blood samples were placed onto the ice and centrifuged (centrifugation conditions: 8000 rpm, 6 min, 2-8° C.) within 1 hr to isolate the plasmas. The time points for blood sampling were at 0 hrs, 0.25 hrs, 0.5 hrs, 1 hr, 2 hrs, 4 hrs, 6 hrs, 8 hrs and 24 hrs after administration. The samples were stored in a refrigerator at −20° C.
(§5) 40 μL of plasma sample was added to 160 μL of cold acetonitrile containing an internal standard, and the mixture was vortexed for 3 min and centrifuged at 11,000 rpm for 5 min. 100 μL of the supernate was added to 100 μL of water, and 5 μL of the mixed solution was loaded for LC-MS/MS analysis. For comparative compounds 1, 3, 5, the prodrug compounds and corresponding prototype compounds 2, 4, 6 were all analyzed, and specific analysis results are shown in Table 4.

[2] = system: Caco-2 cells; test: Caco-2 membrane permeability test; settings: Caco-2, summary of Table 2
Protocol: (§6) The permeability and the efflux ratio of the compounds of the examples of the present invention and the comparative compounds were evaluated using a Caco-2 cell model in this experiment. The specific process was as follows: • 1) The Caco-2 cell culture medium was modified Eagle's medium (MEM) containing 10% inactivated fetal bovine serum and 1% nonessential amino acids.
(§7) Working solutions were obtained by diluting with Hank's balanced salt solution (HBSS, Invitrogen) containing 25 mM HEPES (pH 7.4). The detection concentration of the test compound was 10 μM. This study was a two-way permeation experiment from the apical side to the basolateral side (A−B) and from the basolateral side to the apical side (B−A), and a 90-minute incubation at 37° C. was required. After the incubation, the samples diluted with buffer were detected by LC-MS/MS. The concentrations of the compounds were quantified using a standard curve. • 4) Apparent permeability coefficient Papp value (cm/s):

[3] = Caco-2 membrane permeability test; settings: human, Caco-2, pH 7.4
Protocol: as §6, §7

[4] = in vitro; settings: human, Caco-2, pH 7.4
Protocol: as §6, §7

[5] = system: Caco-2 cells
Protocol: as §6, §7

[6] = Pharmacokinetics in rats (exposure and oral availability); format: in vivo; settings: male, ICR, rat; for bioavailability: PO (5 mpk) vs IV (1 mpk), read-out: Oral availability (F %)
Excerpt: as §1, §2
ICR rats male N=3 original source: Shanghai Sippr-BK Laboratory Animal Co. Ltd.
as §3, §4, §5

[7] = biological target: PD-1/PD-L1 interaction (Homo sapiens (Human), UniProt Q9NZQ7); test: PD1-PDL1 HTRF binding activity test; settings: Cisbio PD-1/PD-L1 binding assay kit
Protocol: The effect of compounds of the examples of the present invention on the PD-1/PD-L1 interaction was determined by the PD-1/PD-L1 binding assay kit from Cisbio (#64ICP01PEG or 64ICP01PEH).

[8] = biological target: PD-1/PD-L1 interaction (Jurkat/NF-κB-luc/PD1 cells cocultured with Raji-PD-L1 cells) (Homo sapiens (Human), UniProt Q9NZQ7); test: Jurkat reporter gene cellular assay; format: cell-based; settings: NF-κB-luc reporter activation fold, OKT3 1 μg/mL, 6 hrs; read-out: Cell activity EC50
Protocol: The effect of compounds of the examples of the present invention on the PD-1/PD-L1 interaction expressed on cell surfaces and the related influence on T cell functions were determined by a Jurkat reporter gene cellular assay. Briefly, the reporter gene plasmid of NF-κB-luc and the plasmid of human PD-1 were transfected into Jurkat cells to establish a stably transfected cell line capable of stably expressing both PD-1 and NF-κB-Luc reporter genes; the expression level of PD-1 on the cell surface was confirmed by flow cytometry; and the expression of the reporter gene was confirmed via the response of the reporter gene stimulated by OKT-3 and Raji cells.
In addition, the plasmid of human PD-L1 was transfected into Raji cells to obtain a cell line capable of stably expressing PD-L1. Jurkat/NF-κB-luc/PD1 cells and Raji-PD-L1 cells were then cocultured and stimulated with OKT-3. On this basis, the compounds were added, and the enhancement of the signal pathway of T cell activation by the inhibitory effect of the compounds on the PD-1/PD-L1 interaction was evaluated by readings of reporter gene responses.

[9] = 10 mg/kg, PO (10 mpk), dosed compound detected in plasma
[10] = 5 mg/kg, PO (5 mpk), dosed compound detected in plasma

Sequence of PD-1/PD-L1 interaction (Q9NZQ7 19-238): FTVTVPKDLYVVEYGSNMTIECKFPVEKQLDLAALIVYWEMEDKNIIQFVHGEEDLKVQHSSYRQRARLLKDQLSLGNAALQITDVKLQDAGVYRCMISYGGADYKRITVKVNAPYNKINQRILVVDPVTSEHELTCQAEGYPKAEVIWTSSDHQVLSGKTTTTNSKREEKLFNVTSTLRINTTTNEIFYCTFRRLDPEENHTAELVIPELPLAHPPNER
Sequence of PD-1/PD-L1 interaction (Jurkat/NF-κB-luc/PD1 cells cocultured with Raji-PD-L1 cells) (Q9NZQ7 19-290): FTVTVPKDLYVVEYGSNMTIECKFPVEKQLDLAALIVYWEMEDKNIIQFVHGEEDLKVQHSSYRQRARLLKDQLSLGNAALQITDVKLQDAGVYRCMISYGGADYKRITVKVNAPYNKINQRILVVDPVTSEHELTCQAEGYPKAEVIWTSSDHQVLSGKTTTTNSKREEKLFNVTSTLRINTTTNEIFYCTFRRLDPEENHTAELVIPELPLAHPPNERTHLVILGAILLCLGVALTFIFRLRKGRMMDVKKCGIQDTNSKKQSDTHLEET

| bioavailability ([1]; plasma, 10 mg/kg) | Papp A→B at 90 min, 10 μM [3] | Papp B→A at 90 min, 10 μM [3] | efflux ratio at 90 min, 10 μM [3] | Cmax [1, 9] | IC50 [7] | EC50 [8] | Structure (SMILES) | further results |
| --- | --- | --- | --- | --- | --- | --- | --- | --- |
| 0% |  |  |  |  |  |  | CCOC(=O)CNCc1cnc(C(=O)Nc2cccc(-c3cccc(NC(=O)c4cc(C5CC5)c(CNCC(=O)OCC)cn4)c3C)c2C)cc1C1CC1 [compound 3, reference compound] |  |
|  | 0.34 ×10⁻⁶ cm/s | 5.51 ×10⁻⁶ cm/s | 16.3 | 46.2 ng/mL |  |  | Cc1c(NC(=O)c2cc(C3CC3)c(CN3CC[C@H](C(=O)O)C3)cn2)cccc1-c1cccc(NC(=O)c2cc(C3CC3)c(CN3CC[C@H](C(=O)O)C3)cn2)c1C [compound 6] | A−B membrane permeability (in words) [2]: poor membrane permeability; AUC(0-t) [1, 9]: 147 ng·h/mL |
|  |  |  |  |  |  |  | COCCc1ccc(OCC(O)CNC(C)C)cc1 (centres unmarked) [Metoprolol, metoprolol] | Papp A→B at 90 min, 10 μM [4]: 24.7 ×10⁻⁶ cm/s; Papp B→A at 90 min, 10 μM [4]: 31.1 ×10⁻⁶ cm/s; efflux ratio at 90 min [4]: 1.26; Evaluation of permeability [5]: High |
| 0% | 0.67 ×10⁻⁶ cm/s | 0.36 ×10⁻⁶ cm/s | 0.53 |  |  |  | Cc1c(NC(=O)c2cc(C3CC3)c(CN[C@H](CO)C(=O)O)cn2)cccc1-c1cccc(NC(=O)c2cc(C3CC3)c(CN[C@H](CO)C(=O)O)cn2)c1C [compound 2, reference compound] | AUC(0-t) ([6]; plasma, 1 mg/kg, IV (1 mpk)): 7640 ng·h/mL; Cmax ([6]; plasma, 1 mg/kg, IV (1 mpk)): 13200 ng/mL; A−B membrane permeability (in words) [2]: poor membrane permeability; AUC(0-t) ([1]; plasma, 2 mg/kg, IV (2 mpk)): 2360 ng·h/mL; Cmax ([1]; plasma, 2 mg/kg, IV (2 mpk)): 5640 ng/mL |
| 19.5% | 2.46 ×10⁻⁶ cm/s | 16.5 ×10⁻⁶ cm/s | 6.75 | 1910 ng/mL | 2.56 nM | 135 nM | Cc1c(NC(=O)c2cc(C3CC3)c(CNC34CCC(C(=O)O)(CC3)CC4)cn2)cccc1-c1cccc(NC(=O)c2cc(C3CC3)c(CNC34CCC(C(=O)O)(CC3)CC4)cn2)c1C [Example 1, 4-(((6-((3′-(5-(((4-carboxybicyclo[2.2.2]octan-1-yl)amino)methyl) -4-cyclopropylpicolinamido)-2,2′-dimethyl-[1,1′-biphenyl]-3-yl)carbamoyl)-4-cyclopropylpyridin-3-yl)methyl)amino)bicyclo[2.2.2]octane-1-carboxylic acid] | AUC(0-t) [6, 10]: 2220 ng·h/mL; Cmax [6, 10]: 426 ng/mL; AUC(0-t) ([6]; plasma, 1 mg/kg, IV (1 mpk)): 2350 ng·h/mL; Cmax ([6]; plasma, 1 mg/kg, IV (1 mpk)): 3540 ng/mL; bioavailability ([6]; plasma, 5 mg/kg): 18.9%; AUC(0-t) [1, 9]: 8790 ng·h/mL; AUC(0-t) ([1]; plasma, 2 mg/kg, IV (2 mpk)): 9000 ng·h/mL; Cmax ([1]; plasma, 2 mg/kg, IV (2 mpk)): 4000 ng/mL |
|  | < 0.24 ×10⁻⁶ cm/s | 0.98 ×10⁻⁶ cm/s |  |  |  |  | Cc1c(NC(=O)c2cc(C3CC3)c(CNCC(=O)O)cn2)cccc1-c1cccc(NC(=O)c2cc(C3CC3)c(CNCC(=O)O)cn2)c1C [compound 4] | A−B membrane permeability (in words) [2]: poor membrane permeability |
|  | < 1.79 ×10⁻⁶ cm/s | < 0.65 ×10⁻⁶ cm/s |  | 30.4 ng/mL |  |  | COC(=O)[C@H]1CCN(Cc2cnc(C(=O)Nc3cccc(-c4cccc(NC(=O)c5cc(C6CC6)c(CN6CC[C@H](C(=O)OC)C6)cn5)c4C)c3C)cc2C2CC2)C1 [compound 5] |  |
| 57.5% | 9.79 ×10⁻⁶ cm/s | 21.7 ×10⁻⁶ cm/s | 2.21 | 4550 ng/mL | 1.46 nM | 247 nM | Cc1c(NC(=O)c2cc(C3CC3)c(CNCC34CCC(C(=O)O)(CC3)C4)cn2)cccc1-c1cccc(NC(=O)c2cc(C3CC3)c(CNCC34CCC(C(=O)O)(CC3)C4)cn2)c1C [Example 4, 4,4′-(((((((2,2′-dimethyl-[1,1′-biphenyl]-3,3′-diyl)bis(azanediyl))bis(carbonyl))bis(4-cyclopropylpyridine-6,3-diyl))bis(methylene))bis(azanediyl))bis(methylene))bis(bicyclo[2.2.1]heptane-1-carboxylic acid)] | AUC(0-t) [6, 10]: 4840 ng·h/mL; Cmax [6, 10]: 1980 ng/mL; AUC(0-t) ([6]; plasma, 1 mg/kg, IV (1 mpk)): 2200 ng·h/mL; Cmax ([6]; plasma, 1 mg/kg, IV (1 mpk)): 1860 ng/mL; bioavailability ([6]; plasma, 5 mg/kg): 44%; AUC(0-t) [1, 9]: 17600 ng·h/mL; AUC(0-t) ([1]; plasma, 2 mg/kg, IV (2 mpk)): 6110 ng·h/mL; Cmax ([1]; plasma, 2 mg/kg, IV (2 mpk)): 3520 ng/mL |
|  |  |  |  |  |  |  | CC[C@H]1OC(=O)[C@H](C)[C@@H](O[C@H]2C[C@@](C)(OC)[C@@H](O)[C@H](C)O2)[C@H](C)[C@@H](O[C@@H]2O[C@H](C)C[C@H](N(C)C)[C@H]2O)[C@](C)(O)C[C@@H](C)C(=O)[C@H](C)[C@@H](O)[C@]1(C)O [Erythromycin, erythromycin] | Papp A→B at 90 min, 10 μM [4]: 0.2 ×10⁻⁶ cm/s; Papp B→A at 90 min, 10 μM [4]: 21.6 ×10⁻⁶ cm/s; efflux ratio at 90 min [4]: 107; Evaluation of permeability [5]: High efflux |
|  |  |  |  |  | 3.67 nM | 151 nM | Cc1c(NC(=O)c2cc(C3CC3)c(CNC34CCC(C(=O)O)(CC3)C4)cn2)cccc1-c1cccc(NC(=O)c2cc(C3CC3)c(CNC34CCC(C(=O)O)(CC3)C4)cn2)c1C [Example 2, 4,4′-((((((2,2′-dimethyl-[1,1′-biphenyl]-3,3′-diyl)bis(azanediyl))bis(carbonyl))bis (4-cyclopropylpyridine-6,3-diyl))bis(methylene))bis(azanediyl))bis(bicyclo[2.2.1]heptane-1-carboxylic acid)] |  |
|  |  |  |  |  | 4.62 nM | 1380 nM | Cc1c(NC(=O)c2cc(C3CC3)c(CN(C)C34CCC(C(=O)O)(CC3)C4)cn2)cccc1-c1cccc(NC(=O)c2cc(C3CC3)c(CN(C)C34CCC(C(=O)O)(CC3)C4)cn2)c1C [Example 3, 4,4′-((((((2,2′-dimethyl-[1,1′-biphenyl]-3,3′-diyl)bis(azanediyl))bis(carbonyl))bis(4-cyclopropylpyridine-6,3-diyl))bis(methylene))bis(methylazanediyl))bis(bicyclo[2.2.1]heptane-1-carboxylic acid)] |  |
| 0% | < 2.28 ×10⁻⁶ cm/s | < 1.85 ×10⁻⁶ cm/s |  |  |  |  | COC(=O)[C@@H](CO)NCc1cnc(C(=O)Nc2cccc(-c3cccc(NC(=O)c4cc(C5CC5)c(CN[C@H](CO)C(=O)OC)cn4)c3C)c2C)cc1C1CC1 [compound 1, reference compound] | bioavailability ([6]; plasma, 5 mg/kg): 0% |

Source: US20250179023A1, “HOLOSYMMETRIC BIPHENYL DERIVATIVE, AND PREPARATION METHOD THEREFOR AND USE THEREOF” (Abbisko Therapeutics Co., Ltd., priority 2022, published 2025)
